Laboratory results from patent US20250032375A1, “SOLVENT MIXTURES COMPRISING 1,3-BUTYLENE GLYCOL AND TRIETHYL-CITRATE” (Givaudan SA, priority 2022, published 2025).
Counter-ions that a name gives are not always drawn. Like-named read-outs stand apart in the source and are kept apart here. Blank lines part the entries; values can stand above or below the compound they belong to.

Key:
[1] = Miscibility and stability in matrix and application; conditions: for miscibility and stability properties compared to DPG: fragrance oil matrix and Eau de Toilette (at 10%)
Text: The miscibility and stability of the solvent mixture of the present invention was compared with those of DPG and the pure mixture ingredients. The miscibility with isopropyl myristate (IPM) and ethylene brassylate (EB) mimics the miscibility with a fragrance oil matrix.

[2] = Solubility by visual inspection
Experimental: (§1) If the sample is dissolved, there is low absorbance (close to zero), any turbidity (>0.5) indicates incomplete solution.

[3] = Solubility by absorption spectrometry (absorbance at 600 nm, 1 cm path)
Experimental: as §1

[4] = Vanillin solubility in other solvents; assay type: physicochemical
[5] = Solubility and storage stability of fragrance ingredients in TEC/1,3-butylene glycol 80/20 mixture; assay type: physicochemical; conditions: for solubility: t = 0, 5 min. heating at 50° C. + 8-10 hrs. stirring at room temperature
Experimental: In the table above, the solubility of single ingredients solubility has been summarized. […] Furthermore, the storage stability at 5 and 60° C. for 14 days have been tested.

[6] = 10% in EDT premix, 14 days 5° C.
[7] = 10% in EDT premix, t = 0 at room temperature
[8] = 10% in 1,3-butylene glycol (*), sample heated and cooled down to room temperature
[9] = 10% in 1:1 MIX (*), sample heated and cooled down to room temperature
[10] = 10% in 1:3 MIX (*), sample heated and cooled down to room temperature
[11] = 10% in 3:1 MIX (*), sample heated and cooled down to room temperature
[12] = 10% in TEC (*), sample heated and cooled down to room temperature
[13] = 1% in 1,3-butylene glycol (*), sample heated and cooled down to room temperature
[14] = 1% in 1:3 MIX (*), sample heated and cooled down to room temperature
[15] = 1% in 3:1 MIX (*), sample heated and cooled down to room temperature
[16] = 1% in TEC (*), sample heated and cooled down to room temperature

SMILES: CC(O)CCO (centres unmarked) [1,3-butylene glycol]
- miscibility and stability rating ([1]; 10% in EDT premix, 24 h UV): clear
- miscibility and stability rating [1, 6]: clear
- miscibility and stability rating [1, 7]: clear
- miscibility and stability rating ([1]; 10% in IPM, 14 days 5° C.): biphasic, hazy
- miscibility and stability properties compared to DPG [1]: show disadvantages when compared to DPG
- miscibility and stability rating ([1]; pure, 14 days 5° C.): clear

SMILES: O=c1ccc2ccccc2o1 [Coumarine Pure Crist, 1-benzopyran-2-one]
- visual inspection [2, 8]: soluble
- visual inspection [2, 9]: soluble
- visual inspection [2, 10]: soluble
- visual inspection [2, 11]: soluble
- visual inspection [2, 12]: soluble
- ultrasonic bath, spectrometer [3, 8]: 0.06 AU
- ultrasonic bath, spectrometer [3, 9]: 0.05 AU
- ultrasonic bath, spectrometer [3, 10]: 0.00 AU
- ultrasonic bath, spectrometer [3, 11]: 0.02 AU
- ultrasonic bath, spectrometer [3, 12]: 0.07 AU

SMILES: CCOc1cc(C=O)ccc1O [Ethyl Vanilline, 3-Ethoxy-4-hydroxybenzaldehyde]
- ultrasonic bath, spectrometer (30 %): 0.00 AU
- ultrasonic bath, spectrometer (40 %): 0.04 AU

SMILES: N#CC(=C1CCCCC1)c1ccccc1 [Peonile, 2-cyclohexylidene-2-phenylacetonitrile]
- visual inspection ([2]; 10% in 1,3-butylene glycol): non soluble
- visual inspection ([2]; 10% in 1:1 MIX): soluble
- visual inspection ([2]; 10% in 1:3 MIX): soluble
- visual inspection ([2]; 10% in 3:1 MIX): soluble
- visual inspection ([2]; 10% in TEC): soluble
- ultrasonic bath, spectrometer ([3]; 10% in 1,3-butylene glycol): >2 AU
- ultrasonic bath, spectrometer ([3]; 10% in 1:1 MIX): 0.00 AU
- ultrasonic bath, spectrometer ([3]; 10% in 1:3 MIX): 0.02 AU
- ultrasonic bath, spectrometer ([3]; 10% in 3:1 MIX): 0.02 AU
- ultrasonic bath, spectrometer ([3]; 10% in TEC): 0.02 AU

SMILES: CCOC(=O)CC(O)(CC(=O)OCC)C(=O)OCC [TEC, Triethyl citrate]
- miscibility and stability rating ([1]; 3% in EDT premix, 24 h UV): clear
- miscibility and stability rating ([1]; 3% in EDT premix, 14 days 5° C.): clear
- miscibility and stability rating ([1]; 3% in EDT premix, 14 days −10° C.): clear
- miscibility and stability rating ([1]; 3% in EDT premix, t = 0 at room temperature): clear
- miscibility and stability rating ([1]; 5% in EDT premix, 24 h UV): clear
- miscibility and stability rating ([1]; 5% in EDT premix, 14 days 5° C.): clear
- miscibility and stability rating ([1]; 5% in EDT premix, 14 days −10° C.): clear
- miscibility and stability rating ([1]; 5% in EDT premix, t = 0 at room temperature): clear
- miscibility and stability rating ([1]; 10% in EB, 24 h UV): clear
- miscibility and stability rating ([1]; 10% in EB, 14 d 60° C.): clear
- miscibility and stability rating ([1]; 10% in EB, 14 days 5° C.): clear
- miscibility and stability rating ([1]; 10% in EDT premix, 24 h UV): clear
- miscibility and stability rating ([1]; 10% in EDT premix, 14 d 60° C.): clear
- miscibility and stability rating [1, 6]: clear
- miscibility and stability rating ([1]; 10% in EDT premix, 14 days −10° C.): clear
- miscibility and stability rating [1, 7]: clear
- miscibility and stability rating ([1]; 10% in IPM, 24 h UV): clear
- miscibility and stability rating ([1]; 10% in IPM, 14 d 60° C.): clear
- miscibility and stability rating ([1]; 10% in IPM, 14 days 5° C.): clear
- miscibility and stability properties compared to DPG [1]: show disadvantages when compared to DPG

Further lines, results first:

- visual inspection [2, 13]: non soluble
- visual inspection [2, 14]: soluble
- visual inspection [2, 15]: soluble
- visual inspection [2, 16]: non soluble
- ultrasonic bath, spectrometer [3, 13]: solid
- ultrasonic bath, spectrometer [3, 14]: 0.02 AU
- ultrasonic bath, spectrometer [3, 15]: 0.02 AU
- ultrasonic bath, spectrometer [3, 16]: solid
SMILES: Cc1occc(=O)c1O [Maltol Lg Crist, 3-hydroxy-2-methyl pyran-4-one]

- amount that can be dissolved ([4]; in DPG, when saturation occurs): about 20%
- amount that can be dissolved ([4]; in triethylcitrate (TEC)): less than 15%
- solubility ([5]; 15% in MIX 80/20): Solubility OK
- solubility ([5]; 20% in MIX 80/20): Solubility OK
- solubility ([5]; 25% in MIX 80/20): Solubility OK
- amount that can be dissolved ([5]; in the solvent mixture of the present invention): at least 25%
SMILES: COc1cc(C=O)ccc1O [vanillin, 4-hydroxy-3-methoxybenzaldehyde]
